# Source: PMC5824344 (ACS Chemical Biology, 2017)
# Like-named read-outs stand apart in the source and are kept apart here.
# Tests used:
# [1] = system: GluI and GluII in Jurkat (T lymphocyte) cells; assay: Free oligosaccharide (FOS) assay in Jurkat cells; assay type: cell-based, human; conditions: 48 h, 50 µm
# Protocol: (§1) 5 Cell and Virus Culture and Assays
# (§2) 5.1 Culture of Cell Lines
# (§3) The human hepatoma cell line Huh7.5 (Apath, LLC) was cultured in Dulbecco’s modiﬁed Eagle medium (DMEM) with Glutamax (Gibco) supplemented with 100 µg mL−1 strepto-mycin (Sigma), 100 U mL−1 penicillin (Sigma), 100 µm MEM non-essential amino acids (Gibco) and 10% (volume/volume, v/v) heat-inactivated (56 ◦C, 30 min) fetal calf serum (FCS, Seralab). The human monocytic cell line HL60 (ATCC), human T lymphocyte cell line Jurkat (ATCC), and human B lymphocyte cell line Raji (ATCC) were each maintained in RPMI 1640 media with Glutamax (Gibco) supplemented with 100 µg mL−1 streptomycin, 100 U mL−1 penicillin and 10% (v/v) FCS. […]
# (§4) Cell viability was measured using the CellTiter 96 R© AQueous One Solution Cell Prolifera-tion MTA (3-(4,5-dimethylthiazol-2-yl)-5-(3-carboxymethoxyphenyl)-2-(4-sulfophenyl)-2H - […]
# (§5) After a further one to two hour incubation, the absorbance at 490 nm was measured on a Molecular Devices SpectraMax M5 microplate reader. […]
# (§6) Absorbances were averaged across replicates, and corrected for background by subtracting the value for media-only wells. Each drug treatment was then evaluated as a percentage of untreated cells. […]
# (§7) FOS analysis was carried out as described previously. […] Before purifying the FOS, each sample was analyzed for protein content using the modiﬁed Bradford assay. […]
# [2] = system: GluI and GluII in Raji (B lymphocyte) cells; assay: Free oligosaccharide (FOS) assay in Raji cells; assay type: cell-based, human; conditions: 48 h, 50 µm
# Protocol: as §1, §2, §3, §4, §5, §6, §7
# rat liver ER GluII = molecular target: T1, rat liver ER GluII (Rattus norvegicus, UniProt A0A8I6GFL3); assay: ER α-glucosidase II inhibition with native-like fluorescently labelled glycan substrate (HPLC); assay type: biochemical
# T1 construct: Rat liver ER, II; from tissue; host or cells: liver of male Wistar rats
# Protocol: % Inhibition (C) Glc1→ Glc0
# Supplemental Figure 1: In vitro inhibition of GluII by 4. Enzyme activity assays were carried out using rat liver ER GluII with either α-p-nitrophenylglucoside ( α-PNPG, A) or ﬂuorescently labelled glycan ( B and C) as substrate. The curves show the relationship between ToP-DNJ 4 concentration and inhibition of the enzymatic activity. The iminosugar inhibits the enzymatic catalysis of the reactions indepen-dent of substrate, but with diﬀering IC 50 values: 9.0 µm for α-PNPG; 14 µm for Glc2Man7GlcNAc2; 56 µm for Glc1Man7GlcNAc2. […]
# 4 Enzyme Inhibition Assays
# All rat enzymes were isolated from 18-week-old, male Wistar rats, while human lysosomal α-glucosidase was obtained in commercially available form from Sanoﬁ Genzyme. Inhibition of isolated glucosidases was evaluated as described previously. 3 Brieﬂy, maltase, isomaltase, sucrase, and cellobiase were used as partially puriﬁed tissue extracts. Inhibition assays for each enzyme were performed with the respective natural substrate, and release of d-glucose measured by Glucose B-test (Wako Diagnostics). Assays of rat ER α-glucosidase II and human lysosomal α-glucosidase inhibition were conducted with α-p-nitrophenylglucoside as substrate; 400 mm Na2CO3 was added to quench these reactions, and the extent of hydrolysis was evaluated as absorbance at 400 nm by spectrophotometer. […]
# T1 sequence (A0A8I6GFL3 33-944): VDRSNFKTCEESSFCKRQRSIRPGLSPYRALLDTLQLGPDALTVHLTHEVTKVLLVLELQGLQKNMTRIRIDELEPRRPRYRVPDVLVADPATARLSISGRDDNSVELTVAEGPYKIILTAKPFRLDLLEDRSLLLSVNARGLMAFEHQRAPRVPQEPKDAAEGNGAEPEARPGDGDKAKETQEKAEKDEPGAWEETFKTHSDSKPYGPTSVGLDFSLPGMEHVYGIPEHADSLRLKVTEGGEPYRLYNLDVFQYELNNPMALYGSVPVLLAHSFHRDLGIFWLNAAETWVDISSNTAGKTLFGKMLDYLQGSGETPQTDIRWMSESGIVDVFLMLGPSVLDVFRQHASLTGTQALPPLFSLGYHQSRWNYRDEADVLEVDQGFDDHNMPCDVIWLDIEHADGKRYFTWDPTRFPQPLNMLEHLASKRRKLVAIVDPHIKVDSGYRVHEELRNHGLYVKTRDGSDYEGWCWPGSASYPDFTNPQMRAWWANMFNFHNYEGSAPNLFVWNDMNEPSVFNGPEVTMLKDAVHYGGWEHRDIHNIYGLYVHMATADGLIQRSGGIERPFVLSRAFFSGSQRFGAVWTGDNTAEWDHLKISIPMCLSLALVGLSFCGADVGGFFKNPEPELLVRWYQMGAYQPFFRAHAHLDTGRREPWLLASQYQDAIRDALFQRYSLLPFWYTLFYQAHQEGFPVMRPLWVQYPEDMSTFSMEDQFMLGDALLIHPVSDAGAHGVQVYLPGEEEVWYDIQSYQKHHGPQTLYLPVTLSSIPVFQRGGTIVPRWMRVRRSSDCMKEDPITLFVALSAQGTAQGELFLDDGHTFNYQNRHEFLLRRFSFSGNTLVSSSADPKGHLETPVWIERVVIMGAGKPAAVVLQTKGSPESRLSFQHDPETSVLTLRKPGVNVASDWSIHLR
# T1 sequence (A0A8I6ADW9 1-525 partner): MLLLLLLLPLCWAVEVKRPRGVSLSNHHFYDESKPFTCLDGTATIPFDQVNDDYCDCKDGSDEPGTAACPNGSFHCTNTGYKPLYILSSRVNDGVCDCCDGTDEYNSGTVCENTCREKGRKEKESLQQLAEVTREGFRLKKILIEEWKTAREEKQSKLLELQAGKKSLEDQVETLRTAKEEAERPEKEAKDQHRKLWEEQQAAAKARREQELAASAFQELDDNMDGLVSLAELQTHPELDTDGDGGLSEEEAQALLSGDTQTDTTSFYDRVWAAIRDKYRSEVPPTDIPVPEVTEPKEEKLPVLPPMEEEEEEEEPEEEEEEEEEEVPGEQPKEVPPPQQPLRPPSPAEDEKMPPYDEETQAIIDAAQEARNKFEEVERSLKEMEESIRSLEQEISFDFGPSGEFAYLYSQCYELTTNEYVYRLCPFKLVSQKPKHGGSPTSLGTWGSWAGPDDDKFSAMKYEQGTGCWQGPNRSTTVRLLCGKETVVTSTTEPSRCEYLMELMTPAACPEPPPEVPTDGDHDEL
smiles,measurement,setting,value
"Cc1c(C)c2c(c(C)c1OCCCCCN1CC(O)C(O)C(O)C1CO)CCC(C)(CCCC(C)CCCC(C)CCCC(C)C)O2 (stereo not drawn) [Compound 4, 5′-tocopheroxypentyl-DNJ]",glucosylated free oligosaccharides (FOS) observed after treatment,[1],not in Jurkat
same,glucosylated free oligosaccharides (FOS) observed after treatment,[1]; listed as ToP-DNJ 4,no glucosylated FOS were detected
same,glucosylated free oligosaccharides (FOS) observed after treatment,[2],nor Raji
same,glucosylated free oligosaccharides (FOS) observed after treatment,[2]; listed as ToP-DNJ 4,no glucosylated FOS were detected
same,IC50,"rat liver ER GluII; first GluII reaction, fluorescently labelled Glc2Man7GlcNAc1 substrate, read-out: IC50 for the conversion of diglucosylated to monoglucosylated glycan by GluII",14 µM
same,IC50,"rat liver ER GluII; second GluII reaction, fluorescently labelled glycan substrate, read-out: IC50 for the conversion of monoglucosylated to nonglucosylated glycan by GluII",56 µM
